Experimental data reported in the Kinase Knowledgebase extract (Sharma et al. 2016).
pIC50: −log10 of the molar value.

Target: ROCK2 (human) (UniProt O75116)
Experiment: Inhibition of ROCK2 Kinase Activity

ROCK2 (human), sequence (O75116 whole entry, looked up): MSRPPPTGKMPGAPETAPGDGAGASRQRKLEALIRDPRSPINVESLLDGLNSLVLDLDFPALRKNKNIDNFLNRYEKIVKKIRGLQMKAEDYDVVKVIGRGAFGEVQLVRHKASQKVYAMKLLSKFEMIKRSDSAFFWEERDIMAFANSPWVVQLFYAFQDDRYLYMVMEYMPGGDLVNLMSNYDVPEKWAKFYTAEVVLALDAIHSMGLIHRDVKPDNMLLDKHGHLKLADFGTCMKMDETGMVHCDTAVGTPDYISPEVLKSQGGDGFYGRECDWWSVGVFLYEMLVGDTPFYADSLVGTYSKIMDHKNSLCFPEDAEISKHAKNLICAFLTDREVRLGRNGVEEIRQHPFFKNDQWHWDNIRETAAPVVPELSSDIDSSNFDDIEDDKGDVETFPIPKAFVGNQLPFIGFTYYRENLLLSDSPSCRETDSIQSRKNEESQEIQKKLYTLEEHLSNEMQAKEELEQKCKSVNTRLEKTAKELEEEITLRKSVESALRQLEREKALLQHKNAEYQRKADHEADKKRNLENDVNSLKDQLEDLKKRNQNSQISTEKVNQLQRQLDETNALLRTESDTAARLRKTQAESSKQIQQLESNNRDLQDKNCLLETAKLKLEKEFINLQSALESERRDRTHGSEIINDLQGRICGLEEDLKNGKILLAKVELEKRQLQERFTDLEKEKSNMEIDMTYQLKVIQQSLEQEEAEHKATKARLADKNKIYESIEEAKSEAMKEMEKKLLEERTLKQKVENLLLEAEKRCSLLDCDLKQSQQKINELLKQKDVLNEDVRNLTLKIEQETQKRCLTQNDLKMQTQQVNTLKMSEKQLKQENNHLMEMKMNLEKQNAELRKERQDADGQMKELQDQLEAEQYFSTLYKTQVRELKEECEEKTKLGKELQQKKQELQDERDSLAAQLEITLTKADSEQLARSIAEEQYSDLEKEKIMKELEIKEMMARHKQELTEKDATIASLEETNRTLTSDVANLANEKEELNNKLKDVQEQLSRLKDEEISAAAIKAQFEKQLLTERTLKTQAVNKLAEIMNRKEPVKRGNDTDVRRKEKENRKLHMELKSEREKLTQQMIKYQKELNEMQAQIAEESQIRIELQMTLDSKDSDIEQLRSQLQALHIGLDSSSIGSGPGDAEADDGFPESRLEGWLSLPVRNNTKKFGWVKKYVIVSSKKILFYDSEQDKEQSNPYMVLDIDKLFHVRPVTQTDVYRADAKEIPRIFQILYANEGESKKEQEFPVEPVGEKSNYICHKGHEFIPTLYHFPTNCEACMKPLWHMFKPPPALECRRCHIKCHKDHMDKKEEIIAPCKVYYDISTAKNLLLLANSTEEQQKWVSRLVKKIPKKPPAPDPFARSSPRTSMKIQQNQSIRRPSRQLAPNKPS

Compared with `COc1cccc(C(=O)Nc2nc3ccc(-c4ccncc4)cc3s2)c1`, `COc1ccc(CNc2nc3ccc(-c4ccncc4)cc3s2)cc1` is 0.41 log units lower in pIC50: 5.71 for the first, 5.30 for the second. The first is the more potent here.

Going from `Cc1n[nH]cc1-c1ccc2nc(C3COc4ccc(F)cc4C3)oc2c1` (centres undefined) to `COc1ccc2c(c1)CC(c1nc3ccc(-c4c[nH]nc4C)cc3o1)CO2` (centres undefined), the pIC50 falls from 8.05 to 7.80 (0.25 log units).

First: COc1cccc(CN(CCN2CCCC2)C(=O)c2nc3ccc(-c4cn[nH]c4)cc3s2)c1
Second: COc1cccc(CN(CCO)C(=O)c2nc3ccc(-c4cn[nH]c4)cc3s2)c1
The pIC50 of the first is 0.78 log units lower: 7.37 for the first, 8.15 for the second.

First: CN(C)CCN(Cc1cccc(F)c1)C(=O)c1nc2ccc(-c3cn[nH]c3)cc2s1
Second: CN(C)CCN(Cc1ccccc1)C(=O)c1nc2ccc(-c3cn[nH]c3)cc2s1
The pIC50 of the first is 0.30 log units higher: 9.00 for the first, 8.70 for the second. The first is the more potent here.

Going from `COc1cccc(CNC(=O)c2nc3ccc(-c4cn[nH]c4)cc3s2)c1` to `COc1cccc(CN(CCCN(C)C)C(=O)c2nc3ccc(-c4cn[nH]c4)cc3s2)c1`, the pIC50 rises from 7.68 to 8.37 (0.69 log units). The second is the more potent here.

Going from `COc1ccc2c(c1)CC(c1nc3cc(-c4ccncc4)cnc3s1)CO2` (centres undefined) to `COc1ccc2c(c1)CC(c1nc3ccc(-c4ccncc4)cc3o1)CO2` (centres undefined), the pIC50 rises from 6.24 to 8.22 (1.98 log units).

Compared with `COc1cccc(CN(CCN(C)C)C(=O)Nc2nc3ccc(-c4cn[nH]c4)cc3s2)c1`, `CN(C)CCNC(=O)c1cccc(CN(C(=O)c2nc3ccc(-c4cn[nH]c4)cc3s2)C2CC2)c1` is 0.64 log units lower in pIC50: 8.10 for the first, 7.46 for the second. The first is the more potent here.

`O=C(Nc1nc2ccc(-c3cn[nH]c3)cc2s1)C1COc2ccc(F)cc2C1` (centres undefined) and `O=C(Nc1nc2ccc(-c3cn[nH]c3)cc2s1)C1COc2ccccc2C1` (centres undefined) are within 0.2 log units of each other in pIC50: 7.66 for the first, 7.85 for the second.

Going from `COc1ccc2c(c1)CC(c1nc3ccc(-c4cn[nH]c4)cc3o1)CO2` (centres undefined) to `COc1ccc2c(c1)CC(c1nc3cc(-c4cn[nH]c4)ccc3o1)CO2` (centres undefined), the pIC50 falls from 8.82 to 6.66 (2.16 log units). The first is the more potent here.

Going from `c1ccc2c(c1)OCC(c1nc3ccc(-c4cn[nH]c4)cc3s1)O2` (centres undefined) to `c1ccc(OCc2nc3ccc(-c4cn[nH]c4)cc3s2)cc1`, the pIC50 falls from 7.77 to 7.36 (0.41 log units). The first is the more potent here.

Going from `Nc1cc(-c2ccc3nc(C4COc5ccccc5C4)oc3c2)ccn1` (centres undefined) to `Nc1cc(-c2ccc3nc(C4COc5ccc(F)cc5C4)oc3c2)ccn1` (centres undefined), the pIC50 rises from 7.44 to 7.74 (0.30 log units). The second is the more potent here.

`NCCC(=O)N1CC(C(=O)Nc2nc3ccc(-c4cn[nH]c4)cc3s2)CC1c1ccccc1` (centres undefined) and `NCC(=O)N1C[C@H](C(=O)Nc2nc3ccc(-c4cn[nH]c4)cc3s2)[C@@H](c2ccccc2)C1` are within 0.2 log units of each other in pIC50: 7.54 for the first, 7.43 for the second.

`c1ccc(CCc2nc3ccc(-c4cn[nH]c4)cc3s2)cc1` and `COc1cccc(OCc2nc3ccc(-c4cn[nH]c4)cc3s2)c1` are within 0.2 log units of each other in pIC50: 7.40 for the first, 7.38 for the second.

First: COc1ccc2c(c1)CC(c1nc3cc(-c4ccnc(N)n4)ccc3o1)CO2 (centres undefined)
Second: COc1ccc2c(c1)CC(c1nc3cc(-c4ccnc5[nH]ccc45)ccc3o1)CO2 (centres undefined)
The pIC50 of the first is 0.26 log units lower: 6.03 for the first, 6.29 for the second. The second is the more potent here.

First: O=C(Nc1nc2ccc(-c3cn[nH]c3)cc2s1)[C@H]1CNC[C@@H]1c1ccccc1
Second: CN(C)CCCNC(=O)c1ccc2c(c1)CC(c1nc3ccc(-c4cn[nH]c4)cc3s1)CO2 (centres undefined)
The pIC50 of the first is 1.76 log units lower: 7.30 for the first, 9.06 for the second. The second is the more potent here.

Going from `Fc1ccc2c(c1)CC(c1nc3ccc(-c4cn[nH]c4)cc3o1)CO2` (centres undefined) to `COc1ccc2c(c1)CC(c1nc3ccc(-c4ccnc(N)c4)cc3o1)CO2` (centres undefined), the pIC50 rises from 7.52 to 8.10 (0.58 log units).

`Nc1nccc(-c2ccc3nc(C4COc5ccc(F)cc5C4)sc3c2)n1` (centres undefined) and `Nc1nccc(-c2ccc3nc(C4COc5ccccc5O4)oc3c2)n1` (centres undefined) are within 0.2 log units of each other in pIC50: 7.64 for the first, 7.68 for the second.
